Type in all cases: cell-based
Experiment [1] addresses T1, CHEK2 (Homo sapiens, UniProt O96017). As to the kind of experiment: competitive gel-based ABPP with probe […] in HEK293T cells.
Experiment [2] has as its target T2, NT5DC1 (5'-Nucleotidase-Domain Containing 1) (Homo sapiens, UniProt Q5TFE4).
T2 sequence (Q5TFE4 1-455): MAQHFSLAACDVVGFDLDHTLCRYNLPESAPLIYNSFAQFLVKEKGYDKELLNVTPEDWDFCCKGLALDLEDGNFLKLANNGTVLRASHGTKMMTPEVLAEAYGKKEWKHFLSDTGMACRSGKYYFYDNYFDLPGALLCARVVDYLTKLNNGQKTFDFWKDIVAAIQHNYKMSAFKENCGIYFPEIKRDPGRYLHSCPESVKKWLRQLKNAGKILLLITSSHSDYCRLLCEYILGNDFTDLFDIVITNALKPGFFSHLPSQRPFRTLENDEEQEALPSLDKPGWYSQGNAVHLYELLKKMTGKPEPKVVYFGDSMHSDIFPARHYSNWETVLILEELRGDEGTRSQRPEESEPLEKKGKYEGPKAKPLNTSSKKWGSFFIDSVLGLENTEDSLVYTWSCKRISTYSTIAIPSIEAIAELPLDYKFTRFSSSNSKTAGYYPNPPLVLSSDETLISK
Described as above.

Experiment [3] has as its target T1, CHEK2. As to the kind of experiment: FRET Z'-LYTE kinase assay.

pIC50: −log10 of the molar value.

T1 sequence (O96017 whole entry): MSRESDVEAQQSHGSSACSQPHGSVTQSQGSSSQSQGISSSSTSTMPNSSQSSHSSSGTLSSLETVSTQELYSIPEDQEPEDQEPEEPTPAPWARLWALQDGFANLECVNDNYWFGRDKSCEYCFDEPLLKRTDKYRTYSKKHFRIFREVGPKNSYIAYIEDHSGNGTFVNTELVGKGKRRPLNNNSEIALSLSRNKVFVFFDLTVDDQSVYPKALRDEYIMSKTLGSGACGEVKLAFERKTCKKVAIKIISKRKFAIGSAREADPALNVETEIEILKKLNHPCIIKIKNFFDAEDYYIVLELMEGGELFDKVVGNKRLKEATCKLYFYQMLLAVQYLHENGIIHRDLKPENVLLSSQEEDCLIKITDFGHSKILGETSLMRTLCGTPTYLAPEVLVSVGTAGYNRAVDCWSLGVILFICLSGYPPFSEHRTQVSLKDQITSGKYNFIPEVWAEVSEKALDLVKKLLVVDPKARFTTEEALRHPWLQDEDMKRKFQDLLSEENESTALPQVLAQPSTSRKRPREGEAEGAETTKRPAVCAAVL

As for `C=CC(=O)N[C@@H]1CN(c2nc(Nc3cn(C)nc3OC)c3ncn(C)c3n2)C[C@H]1F` [compound 2, N-((3R,4R)-4-Fluoro-1-(6-((3-methoxy-1-methyl-1H-pyrazol-4-yl)amino)-9-methyl-9H-purin-2-yl)pyrrolidine-3-yl)acrylamide], the pIC50 – broadly, −log10 of the IC50, conventionally taken in molar units – at CHEK2 [1] was about 5.40.
On to `C=CC(=O)Nc1cccc(Nc2nc(Nc3ccc(N4CCN(C(C)=O)CC4)cc3OC)ncc2C(F)(F)F)c1` [compound 3, rociletinib], for which the negative logarithm of the IC50 (pIC50) in experiment [2] is about 6.44; at CHEK2 [3], 6.46.

For the origin of these results see publication PMC5693604 (Cell chemical biology, 2017).
